From the supplement of paper PMC10307832

What follows are cell lines tested with C1CSC2=C(C(=O)N1)SC3=C2C=C(C=C3)O [kb NB 142-70] + O=C(c1cc(Cc2n[nH]c(=O)c3ccccc23)ccc1F)N1CCN(C(=O)C2CC2)CC1 [Olaparib] (partner 8 µM) (assay: relative viability (nuclei count vs DMSO), 5 days (fraction); higher = more cells survive). Details: first compound 0.1 µM.
Method in brief: (§1)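 The day after seeding in 1536-well plates, lung cancer cell lines were treated by pin tool with a single drug, or with a fixed anchor-drug dose together with five library-drug doses (not always all listed) in √10 steps. After 5 days, a combined fix-and-stain solution (final 0.05% Triton X-100, 1% formaldehyde, 1 ug/ml Hoechst) was added. Nuclei counted on 4× images gave relative viability as treated counts over vehicle counts, reported as the median of duplicate plates.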

For NCI-H2342, which relative viability is on record?
The relative viability was 0.397.

How did the relative viability turn out when NCI-H727 was run?
Its relative viability is 0.743.

NCI-H1650 was tested. Which relative viability did it give?
Its relative viability is 0.9.

With EBC-1 as the cell line, how does the relative viability read?
Its relative viability is 0.775.

For NCI-H1703, which relative viability is on record?
The relative viability was 0.47.

With NCI-H1993 as the cell line, how does the relative viability read?
The relative viability was 1.04.

SW 1573 was tested. Which relative viability did it give?
The relative viability was 0.421.

With NCI-H838 as the cell line, how does the relative viability read?
Its relative viability is 0.73.

With LCLC-103H as the cell line, how does the relative viability read?
Its relative viability is 0.751.

How did the relative viability turn out when Calu-6 was run?
The relative viability was 0.589.

Which relative viability does the source give for NCI-H1648 here?
The relative viability was 0.645.

With IA-LM as the cell line, how does the relative viability read?
Its relative viability is 0.841.

Which relative viability does the source give for HCC-44 here?
The relative viability was 0.945.

How did the relative viability turn out when NCI-H522 was run?
Its relative viability is 0.69.

How did the relative viability turn out when SW 900 was run?
Its relative viability is 0.906.

NCI-H1299 was tested. Which relative viability did it give?
The relative viability was 1.02.

With CAL-12T as the cell line, how does the relative viability read?
Its relative viability is 0.7.

How did the relative viability turn out when NCI-H2228 was run?
The relative viability was 0.694.

For NCI-H1792, which relative viability is on record?
The relative viability was 0.406.

Same assay, conditions: first compound 1 µM

Which relative viability does the source give for NCI-H2342 here?
Its relative viability is 0.458.

How did the relative viability turn out when NCI-H727 was run?
Its relative viability is 0.592.

NCI-H1650 was tested. Which relative viability did it give?
Its relative viability is 0.881.

For EBC-1, which relative viability is on record?
The relative viability was 0.587.

NCI-H1703 was tested. Which relative viability did it give?
Its relative viability is 0.387.

With NCI-H1993 as the cell line, how does the relative viability read?
Its relative viability is 0.911.

For SW 1573, which relative viability is on record?
The relative viability was 0.305.

For NCI-H838, which relative viability is on record?
The relative viability was 0.787.

LCLC-103H was tested. Which relative viability did it give?
The relative viability was 0.749.

For Calu-6, which relative viability is on record?
Its relative viability is 0.457.

For NCI-H1648, which relative viability is on record?
The relative viability was 0.707.

With IA-LM as the cell line, how does the relative viability read?
The relative viability was 0.771.

HCC-44 was tested. Which relative viability did it give?
Its relative viability is 0.981.

With NCI-H522 as the cell line, how does the relative viability read?
The relative viability was 0.587.

With SW 900 as the cell line, how does the relative viability read?
The relative viability was 1.14.

With NCI-H1299 as the cell line, how does the relative viability read?
Its relative viability is 0.949.

CAL-12T was tested. Which relative viability did it give?
The relative viability was 0.691.

For NCI-H2228, which relative viability is on record?
Its relative viability is 0.587.

Which relative viability does the source give for NCI-H1792 here?
The relative viability was 0.547.

Same assay, conditions: first compound 3.162 µM

NCI-H2342 was tested. Which relative viability did it give?
Its relative viability is 0.408.

NCI-H727 was tested. Which relative viability did it give?
The relative viability was 0.68.

For NCI-H1650, which relative viability is on record?
Its relative viability is 0.854.

With EBC-1 as the cell line, how does the relative viability read?
Its relative viability is 0.385.

NCI-H1703 was tested. Which relative viability did it give?
Its relative viability is 0.455.

Which relative viability does the source give for NCI-H1993 here?
The relative viability was 1.04.

For SW 1573, which relative viability is on record?
The relative viability was 0.177.

NCI-H838 was tested. Which relative viability did it give?
Its relative viability is 0.739.

LCLC-103H was tested. Which relative viability did it give?
The relative viability was 0.847.

Which relative viability does the source give for Calu-6 here?
The relative viability was 0.287.

Which relative viability does the source give for NCI-H1648 here?
The relative viability was 0.738.

For IA-LM, which relative viability is on record?
Its relative viability is 0.807.

Which relative viability does the source give for HCC-44 here?
The relative viability was 0.974.

With NCI-H522 as the cell line, how does the relative viability read?
Its relative viability is 0.509.

How did the relative viability turn out when SW 900 was run?
The relative viability was 0.789.

How did the relative viability turn out when NCI-H1299 was run?
Its relative viability is 0.837.

For CAL-12T, which relative viability is on record?
Its relative viability is 0.677.

With NCI-H2228 as the cell line, how does the relative viability read?
The relative viability was 0.362.

For NCI-H1792, which relative viability is on record?
Its relative viability is 0.619.

The cell lines below were run with NCC(=O)Nc1ccc(-n2nc(C(F)(F)F)cc2-c2ccc3c(ccc4ccccc43)c2)cc1 + Nc1ncn([C@H]2C[C@H](O)[C@@H](CO)O2)c(=O)n1 [Decitabine] (partner 2 µM) in the same assay as above. Details: first compound 0.02 µM.
Method in brief: as §1

For NCI-H2342, which relative viability is on record?
Its relative viability is 0.653.

Which relative viability does the source give for NCI-H727 here?
The relative viability was 0.941.

How did the relative viability turn out when NCI-H1650 was run?
The relative viability was 0.381.

With NCI-H1993 as the cell line, how does the relative viability read?
The relative viability was 0.558.

For SW 1573, which relative viability is on record?
Its relative viability is 0.496.

Which relative viability does the source give for NCI-H838 here?
Its relative viability is 0.489.

LCLC-103H was tested. Which relative viability did it give?
Its relative viability is 0.735.

Which relative viability does the source give for NCI-H1648 here?
The relative viability was 0.577.

HCC-44 was tested. Which relative viability did it give?
Its relative viability is 0.885.

NCI-H522 was tested. Which relative viability did it give?
Its relative viability is 0.638.

Which relative viability does the source give for SW 900 here?
The relative viability was 0.43.

Which relative viability does the source give for NCI-H1792 here?
Its relative viability is 0.705.

Same assay, conditions: first compound 0.06325 µM

With NCI-H2342 as the cell line, how does the relative viability read?
Its relative viability is 0.775.

How did the relative viability turn out when NCI-H727 was run?
The relative viability was 0.647.

How did the relative viability turn out when NCI-H1650 was run?
The relative viability was 0.459.

Which relative viability does the source give for NCI-H1993 here?
Its relative viability is 0.634.

SW 1573 was tested. Which relative viability did it give?
Its relative viability is 0.524.

NCI-H838 was tested. Which relative viability did it give?
The relative viability was 0.494.

With LCLC-103H as the cell line, how does the relative viability read?
The relative viability was 0.742.

For NCI-H1648, which relative viability is on record?
The relative viability was 0.515.

For HCC-44, which relative viability is on record?
Its relative viability is 0.956.

For NCI-H522, which relative viability is on record?
The relative viability was 0.619.

How did the relative viability turn out when SW 900 was run?
Its relative viability is 0.452.

Which relative viability does the source give for NCI-H1792 here?
The relative viability was 0.569.

Same assay, conditions: first compound 0.2 µM

With NCI-H2342 as the cell line, how does the relative viability read?
The relative viability was 0.788.

Which relative viability does the source give for NCI-H727 here?
The relative viability was 0.869.

With NCI-H1650 as the cell line, how does the relative viability read?
The relative viability was 0.431.

For NCI-H1993, which relative viability is on record?
Its relative viability is 0.663.

With SW 1573 as the cell line, how does the relative viability read?
Its relative viability is 0.524.

Which relative viability does the source give for NCI-H838 here?
The relative viability was 0.504.

For LCLC-103H, which relative viability is on record?
The relative viability was 0.809.

With NCI-H1648 as the cell line, how does the relative viability read?
The relative viability was 0.479.

How did the relative viability turn out when HCC-44 was run?
Its relative viability is 0.933.

Which relative viability does the source give for NCI-H522 here?
The relative viability was 0.673.

Which relative viability does the source give for SW 900 here?
The relative viability was 0.607.

Which relative viability does the source give for NCI-H1792 here?
The relative viability was 0.479.

Same assay, conditions: first compound 0.6325 µM

For NCI-H2342, which relative viability is on record?
Its relative viability is 0.709.

For NCI-H727, which relative viability is on record?
Its relative viability is 0.874.

NCI-H1650 was tested. Which relative viability did it give?
Its relative viability is 0.355.

How did the relative viability turn out when NCI-H1993 was run?
The relative viability was 0.611.

With SW 1573 as the cell line, how does the relative viability read?
The relative viability was 0.518.

NCI-H838 was tested. Which relative viability did it give?
The relative viability was 0.441.

Which relative viability does the source give for LCLC-103H here?
Its relative viability is 0.763.

How did the relative viability turn out when NCI-H1648 was run?
The relative viability was 0.549.

With HCC-44 as the cell line, how does the relative viability read?
Its relative viability is 0.905.

How did the relative viability turn out when NCI-H522 was run?
The relative viability was 0.681.

With SW 900 as the cell line, how does the relative viability read?
Its relative viability is 0.406.

With NCI-H1792 as the cell line, how does the relative viability read?
Its relative viability is 0.605.

Same assay, conditions: first compound 2 µM

With NCI-H2342 as the cell line, how does the relative viability read?
Its relative viability is 0.744.

For NCI-H727, which relative viability is on record?
The relative viability was 0.812.

Which relative viability does the source give for NCI-H1650 here?
The relative viability was 0.508.

How did the relative viability turn out when NCI-H1993 was run?
The relative viability was 0.64.

Which relative viability does the source give for SW 1573 here?
The relative viability was 0.436.

For NCI-H838, which relative viability is on record?
Its relative viability is 0.335.

For LCLC-103H, which relative viability is on record?
Its relative viability is 0.748.

Which relative viability does the source give for NCI-H1648 here?
The relative viability was 0.445.

How did the relative viability turn out when HCC-44 was run?
Its relative viability is 0.927.

NCI-H522 was tested. Which relative viability did it give?
Its relative viability is 0.608.

How did the relative viability turn out when SW 900 was run?
Its relative viability is 0.444.

How did the relative viability turn out when NCI-H1792 was run?
Its relative viability is 0.582.

The cell lines below were run with NCC(=O)Nc1ccc(-n2nc(C(F)(F)F)cc2-c2ccc3c(ccc4ccccc43)c2)cc1 + CS(=O)(=O)N1CCN(Cc2cc3nc(-c4cccc5[nH]ncc45)nc(N4CCOCC4)c3s2)CC1 [Pictilisib] (partner 1 µM) in the same assay as above. Details: first compound 0.02 µM.
Method in brief: as §1

NCI-H727 was tested. Which relative viability did it give?
The relative viability was 0.427.

NCI-H1650 was tested. Which relative viability did it give?
Its relative viability is 0.616.

EBC-1 was tested. Which relative viability did it give?
The relative viability was 0.324.

How did the relative viability turn out when NCI-H1703 was run?
Its relative viability is 0.218.

NCI-H1993 was tested. Which relative viability did it give?
The relative viability was 0.759.

With SW 1573 as the cell line, how does the relative viability read?
The relative viability was 0.513.

NCI-H838 was tested. Which relative viability did it give?
The relative viability was 0.474.

With LCLC-103H as the cell line, how does the relative viability read?
Its relative viability is 0.606.

Which relative viability does the source give for Calu-6 here?
The relative viability was 0.849.

How did the relative viability turn out when IA-LM was run?
Its relative viability is 0.444.

For HCC-44, which relative viability is on record?
The relative viability was 0.5.

NCI-H1299 was tested. Which relative viability did it give?
Its relative viability is 0.346.

CAL-12T was tested. Which relative viability did it give?
Its relative viability is 0.392.

How did the relative viability turn out when NCI-H2228 was run?
The relative viability was 0.473.

With NCI-H1792 as the cell line, how does the relative viability read?
Its relative viability is 0.244.

For NCI-H1563, which relative viability is on record?
Its relative viability is 0.69.

Same assay, conditions: first compound 0.06325 µM

How did the relative viability turn out when NCI-H727 was run?
Its relative viability is 0.45.

Which relative viability does the source give for NCI-H1650 here?
The relative viability was 0.656.

With EBC-1 as the cell line, how does the relative viability read?
Its relative viability is 0.37.

How did the relative viability turn out when NCI-H1703 was run?
The relative viability was 0.244.

How did the relative viability turn out when NCI-H1993 was run?
The relative viability was 0.773.

For SW 1573, which relative viability is on record?
The relative viability was 0.545.

With NCI-H838 as the cell line, how does the relative viability read?
The relative viability was 0.441.
